Experimental data reported in patent US10611760B2, “Therapeutic compounds as inhibitors of the orexin-1 receptor” (C4X Discovery Limited, priority 2014, dated 2020).
Structures can show the parent of a compound that is named as a salt.

Key:
Assay type in all cases: cell-based
[1] = target: T1, hOX1R (Homo sapiens, UniProt O43613); test: Intracellular calcium measurements using stable-replicating cells, Method B (CHO cells, FLIPR Tetra), OX1; conditions: orexin A at EC75, read-out: pIC50 OX1 (converted)
T1 sequence (O43613 1-425): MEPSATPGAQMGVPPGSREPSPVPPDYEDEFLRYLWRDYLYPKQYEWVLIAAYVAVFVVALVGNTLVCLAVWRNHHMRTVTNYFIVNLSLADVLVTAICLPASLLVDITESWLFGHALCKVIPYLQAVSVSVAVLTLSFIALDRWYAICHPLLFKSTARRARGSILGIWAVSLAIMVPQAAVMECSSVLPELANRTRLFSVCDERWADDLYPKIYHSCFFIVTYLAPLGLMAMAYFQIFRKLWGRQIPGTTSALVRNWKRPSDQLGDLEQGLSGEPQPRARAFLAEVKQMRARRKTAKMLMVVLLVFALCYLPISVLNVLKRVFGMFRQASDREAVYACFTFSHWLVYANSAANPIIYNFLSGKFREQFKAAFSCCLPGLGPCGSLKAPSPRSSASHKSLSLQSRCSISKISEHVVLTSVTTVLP
Protocol: (§1) Intracellular Calcium Measurements Using Stable-replicating Cells:
(§2) Human OX1 or human OX2 receptor expressing CHO cells are plated into 384 well black, clear bottom, CellBIND plates at a seeding density of 10,000 cells/75 μL growth media. The seeded plates are incubated at 37° C. in air supplemented with 5% CO2 overnight.
(§3) The next day media is removed and replaced with 30 μL/well of cell loading buffer (a vial of Calcium 5 is solubilized in 20 mL of assay buffer) and the cells incubated for 1 hr at 37° C. The serially diluted test compounds (10 μL/well) are added to the cell plate by the FLIPR Tetra and the addition is monitored for 5 mins by the instrument. The cell plate is then removed and incubated for additional 25 mins in a humidified incubator at […] prior to being placed back into the FLIPR Tetra. Finally 10 μL of orexin A in assay buffer +0.1% (w/v) bovine serum albumin is dispensed by the FLIPR Tetra at an EC75 concentration determined for each assay run. Fluorescence is measured at excitation and emission wavelengths of 485 nm and 525 nm respectively and data analyzed using GraphPad Prism for the EC75 value of orexin A and Aplus to determine an IC50 value for each test compound.

[2] = target: T1, hOX1R; test: Intracellular calcium measurements using division-arrested cells, OX1; conditions: agonist orexin A at 2×EC50, * = single experiment, otherwise average of at least two, read-out: pIC50 OX1 (converted)
Protocol: (§4) Intracellular Calcium Measurements Using Division-arrested Cells (Table 1):
(§5) Test compounds are prepared as 10 mM stock solutions in DMSO, then serially diluted in half log concentrations with DMSO followed by dilution with assay buffer (HBSS (Sigma-Aldrich, H8264) containing 20 mM HEPES (Sigma-Aldrich, H4034), 0.1% (w/v) bovine serum albumin and adjusted to pH 7.4) to a top final assay concentration of 10 μM.
(§6) Human OX1 (CT-A474) and human OX2 (CT-A475) receptor-expressing division-arrested cells are plated into 384 well black, clear bottom, cell-bind plates at a seeding density of 10,000 cells/50 μL growth media. The seeded plates are incubated at 37° C. in air supplemented with 5% CO2 for 16 hrs.
(§7) The media is removed and replaced with 30 μL/well of cell loading buffer (a vial of Calcium 5 is solubilized in 22 mL of assay buffer to which a freshly prepared 250 mM solution of probenecid in 1:1 1M NaOH to assay buffer (200 μL) is added) and the cells incubated for 1 hr at 37° C. The serially diluted test compounds (10 μL/well) are added to the plate, which is then incubated for 10 mins and placed in a FlexStation III reader.

[3] = target: T2, hOX2R (Homo sapiens, UniProt O43614); test: Intracellular calcium measurements using division-arrested cells, OX2; conditions: agonist orexin B at 2×EC50, * = single experiment, otherwise average of at least two, read-out: pIC50 OX2 (converted)
T2 sequence (O43614 1-444): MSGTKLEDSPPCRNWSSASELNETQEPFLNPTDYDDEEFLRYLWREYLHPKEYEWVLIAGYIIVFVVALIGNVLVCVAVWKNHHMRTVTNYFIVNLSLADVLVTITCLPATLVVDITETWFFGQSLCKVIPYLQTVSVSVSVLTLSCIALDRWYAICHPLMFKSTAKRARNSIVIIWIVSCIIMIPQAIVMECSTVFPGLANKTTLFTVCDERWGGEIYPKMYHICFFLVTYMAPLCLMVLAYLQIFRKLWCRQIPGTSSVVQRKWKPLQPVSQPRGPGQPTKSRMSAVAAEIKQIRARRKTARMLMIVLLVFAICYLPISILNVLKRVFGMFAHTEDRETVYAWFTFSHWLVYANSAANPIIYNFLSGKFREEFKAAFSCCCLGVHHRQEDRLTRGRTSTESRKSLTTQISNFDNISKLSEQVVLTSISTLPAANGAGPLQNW
Protocol: as §4, §5, §6, §7

[4] = target: T2, hOX2R; test: Intracellular calcium measurements using stable-replicating cells, Method B (CHO cells, FLIPR Tetra), OX2; conditions: orexin A at EC75, read-out: pIC50 OX2 (converted)
Protocol: as §1, §2, §3

Row | Compound | IC50 [1] | IC50 [2] | IC50 [3] | IC50 [4]
1 | CC(C)C[C@@H](CNc1ccc(Cl)cn1)N(C)C(=O)c1ccccc1-c1ccccc1 [Example 8, (S)—N-(1-((5-chloropyridin-2-yl)amino)-4-methylpentan-2-yl)-N-methyl-[1,1′-biphenyl]-2-carboxamide] | – | 0.794 µM | > 10 µM | –
2 | CC(C)[C@@H](CNc1ccc(Cl)cn1)NC(=O)c1ccccc1-c1ccccc1 [Example 4, (S)—N-(1-((5-chloropyridin-2-yl)amino)-3-methylbutan-2-yl)-[1,1′-biphenyl]-2-carboxamide] | – | 0.158 µM | > 10 µM | –
3 | CC[C@@H](CNc1ccc(C(F)(F)F)nc1)N(C)C(=O)c1cc(Cl)ccc1-n1nccn1 [Example 54, (S)-5-chloro-N-methyl-2-(2H-1,2,3-triazol-2-yl)-N-(1-((6-(trifluoromethyl)pyridin-3-yl)amino)butan-2-yl)benzamide] | – | 0.02 µM | 1.26 µM | –
4 | CC[C@@H](CNc1ccc(Cl)cn1)N(C)C(=O)c1cc(F)ccc1-n1nccn1 [Example 18, (S)—N-(1-((5-chloropyridin-2-yl)amino)butan-2-yl)-5-fluoro-N-methyl-2-(2H-1,2,3-triazol-2-yl)benzamide] | – | 0.0794 µM | > 10 µM | –
5 | CC[C@@H](CNc1ccc(Cl)cn1)N(C)C(=O)c1cc(N(C)C)ccc1-n1nccn1 [Example 23, (S)—N-(1-((5-chloropyridin-2-yl)amino)butan-2-yl)-5-(dimethylamino)-N-methyl-2-(2H-1,2,3-triazol-2-yl)benzamide] | – | 0.0251 µM | 2.51 µM | –
6 | CC[C@@H](CNc1ccc(Cl)cn1)N(C)C(=O)c1ccccc1-c1ccccc1 [Example 3, (S)—N-(1-((5-chloropyridin-2-yl)amino)butan-2-yl)-N-methyl-[1,1′-biphenyl]-2-carboxamide] | – | 0.02 µM | 1 µM | –
7 | CC[C@@H](CNc1ccc(Cl)cn1)NC(=O)c1cc(Cl)ccc1-n1nccn1 [Example 25, (S)-5-chloro-N-(1-((5-chloropyridin-2-yl)amino)butan-2-yl)-2-(2H-1,2,3-triazol-2-yl)benzamide] | – | 0.631 µM | > 10 µM | –
8 | CC(C)[C@@H](CNc1ccc(Cl)cn1)N(C)C(=O)c1ccccc1OC(F)(F)F [Example 52, (S)—N-(1-((5-chloropyridin-2-yl)amino)-3-methylbutan-2-yl)-N-methyl-2-(trifluoromethoxy)benzamide] | – | 1 µM | > 7.94 µM | –
9 | CN(C(=O)c1ccccc1-c1ccccc1)[C@H](CNc1ccc(Cl)cn1)C(C)(C)C [Example 12, (S)—N-(1-((5-chloropyridin-2-yl)amino)-3,3-dimethylbutan-2-yl)-N-methyl-[1,1′-biphenyl]-2-carboxamide] | – | 1 µM | > 10 µM | –
10 | CC(C)[C@@H](CNc1ccc(Cl)cn1)N(C)C(=O)c1ccccc1-n1nccn1 [Example 28, (S)—N-(1-((5-chloropyridin-2-yl)amino)-3-methylbutan-2-yl)-N-methyl-2-(2H-1,2,3-triazol-2-yl)benzamide] | – | 0.2 µM | > 10 µM | –
11 | CC(C)C[C@@H](CNc1ccc(Cl)cn1)NC(=O)c1ccccc1-c1ccccc1 [Example 5, (S)—N-(1-((5-chloropyridin-2-yl)amino)-4-methylpentan-2-yl)-[1,1′-biphenyl]-2-carboxamide] | – | 1 µM | > 10 µM | –
12 | CC(C)[C@@H](COc1ccc(Cl)cn1)N(C)C(=O)c1ccccc1-c1ccccc1 [Example 34, (S)—N-(1-((5-chloropyridin-2-yl)oxy)-3-methylbutan-2-yl)-N-methyl-[1,1′-biphenyl]-2-carboxamide] | – | 0.2 µM | > 3.16 µM | –
13 | CN(C(=O)c1ccccc1-c1ccccc1)[C@H](CNc1ccc(Cl)cn1)C1CC1 [Example 13, (S)—N-(2-((5-chloropyridin-2-yl)amino)-1-cyclopropylethyl)-N-methyl-[1,1′-biphenyl]-2-carboxamide] | – | 0.0398 µM | 2.51 µM | –
14 | CC[C@@H](CNc1ccc(Cl)cn1)N(C)C(=O)c1cc(Cl)ccc1-n1nccn1 [Example 16, (S)-5-chloro-N-(1-((5-chloropyridin-2-yl)amino)butan-2-yl)-N-methyl-2-(2H-1,2,3-triazol-2-yl)benzamide] | – | 0.0126 µM | 1.26 µM | –

Further lines, results first:

Row | IC50 [1] | IC50 [2] | IC50 [3] | IC50 [4] | Compound
15 | 0.002 µM | – | – | – | CC[C@@H](CNc1ncc(C(F)(F)F)cn1)N(C)C(=O)c1nc(C)ccc1-c1ncccn1 [Example 84, (S)—N,6-dimethyl-3-(pyrimidin-2-yl)-N-(1-((5-(trifluoromethyl)pyrimidin-2-yl)amino)butan-2-yl)picolinamide formic acid salt]
16 | 0.00794 µM | – | – | – | Cc1ccc(-n2nccn2)c(C(=O)N(C)[C@H](CNc2cnc(C(F)(F)F)cn2)C(C)C)n1 [Example 67, (S)—N,6-dimethyl-N-(3-methyl-1-((5-(trifluoromethyl)pyrazin-2-yl)amino)butan-2-yl)-3-(2H-1,2,3-triazol-2-yl)picolinamide]
17 | 0.00398 µM | – | – | – | CC[C@@H](CNc1ccc(Cl)cn1)N(C)C(=O)c1cc(OC)c(C)cc1-n1nccn1 [Example 87, (S)—N-(1-((5-chloropyridin-2-yl)amino)butan-2-yl)-5-methoxy-N,4-dimethyl-2-(2H-1,2,3-triazol-2-yl)benzamide]
18 | – | – | – | > 1 µM | CC[C@@H](CNc1ncc(C(F)(F)F)cn1)N(CC)C(=O)c1nc(C)ccc1-n1nccn1 [Example 73, (S)—N-ethyl-6-methyl-3-(2H-1,2,3-triazol-2-yl)-N-(1-((5-(trifluoromethyl)pyrimidin-2-yl)amino)butan-2-yl)picolinamide]
19 | – | 0.126 µM | > 3.16 µM | – | CC(C)[C@@H](CNC(=O)c1ccc(F)cc1)N(C)C(=O)c1ccccc1-c1ccccc1 [Example 56, (S)—N-(1-(4-fluorobenzamido)-3-methylbutan-2-yl)-N-methyl-[1,1′-biphenyl]-2-carboxamide]
20 | 0.00158 µM | – | – | – | CC[C@@H](CNc1cnc(C(F)(F)F)cn1)N(CC)C(=O)c1nc(C)ccc1-n1nccn1 [Example 70, (S)—N-ethyl-6-methyl-3-(2H-1,2,3-triazol-2-yl)-N-(1-((5-(trifluoromethyl)pyrazin-2-yl)amino)butan-2-yl)picolinamide]
21 | 0.0316 µM | – | – | – | CC[C@@H](CNc1ncc(C(F)(F)F)cn1)N(C)C(=O)c1nc(OC)ccc1-n1nccn1 [Example 92, (S)-6-methoxy-N-methyl-3-(2H-1,2,3-triazol-2-yl)-N-(1-((5-(trifluoromethyl)pyrimidin-2-yl)amino)butan-2-yl)picolinamide]
22 | 0.00158 µM | – | – | – | CC[C@@H](CNc1ncc2ccccc2n1)N(CC)C(=O)c1nc(C)ccc1-n1nccn1 [Example 72, (S)—N-ethyl-6-methyl-N-(1-(quinazolin-2-ylamino)butan-2-yl)-3-(2H-1,2,3-triazol-2-yl)picolinamide]
